{
  "source": "patent US20200214330A1",
  "about": "“RICE PROTEIN HYDROLYSATES WITH ANTI-INFLAMMATORY PROPERTIES” (ABBOTT LABORATORIES, priority 2017, published 2020)",
  "format_in_all_cases": "cell-based, murine",
  "key": {"[1]": {"system": "NF-κB activation in RAW 264.7 cells", "test": "LPS-induced NF-κB activation in RAW 264.7 macrophage cells", "conditions": "2.5 μg/mL pretreatment for 2 hours; 30 min after LPS stimulation; FIG. 13", "description": "FIG. 6 illustrates in vitro NF-κB activation (30 min after LPS stimulation) in macrophage cells (RAW264.7) preincubated for 2 hours with RPH-1 and then treated with LPS; FIG. 13 illustrates in vitro inhibition of nuclear factor kappa-light-chain-enhancer of activated B cells (NF-κB) activation in macrophage cells (RAW264.7) pre-incubated with curcumin for 2 hours and treated with LPS for 30 minutes; Specific studies have determined effects of the hydrolysates on TNFα secretion, 4-1BBL expression, and NF-κB Expression in murine macrophages (RAW 264.7 cells) treated with LPS (see FIGS. 1-13). Pretreatment with curcumin at 0.5 μg/mL and […] for 1 hour led to an inhibition of TNFα secretion (FIG. 11) and 4-IBBL expression (FIG. 12) at 6 hours and 24 hours following LPS treatment."}, "[2]": {"system": "TNFα secretion from RAW 264.7 cells", "test": "LPS-induced TNFα secretion from RAW 264.7 macrophage cells", "conditions": "1 hour pretreatment at 0.5 μg/mL, FIG. 11", "description": "(§1) FIG. 11 illustrates in vitro early (6 hours after LPS stimulation) and late (24 hours after LPS stimulation) phase inhibition of TNFα secretion from macrophage cells (RAW264.7) pre-incubated with different levels of curcumin for 1 hour and then treated with LPS; Specific studies have determined effects of the hydrolysates on TNFα secretion, 4-1BBL expression, and NF-κB Expression in murine macrophages (RAW 264.7 cells) treated with LPS (see FIGS. 1-13). RPH-1 inhibits early and late phase TNFα secretion from cells in culture."}, "[3]": {"system": "4-1BBL expression in RAW 264.7 cells", "test": "LPS-induced 4-1BBL expression in RAW 264.7 macrophage cells", "conditions": "1 hour pretreatment at 0.5 μg/mL, FIG. 12", "description": "as §1, with “FIG. 5 illustrates in vitro early (6 hours after LPS stimulation) and late phase (24 hours after LPS stimulation) inhibition of 4-1BBL expression in macrophage cells (RAW264.7) pre-incubated for 1 hour with RPH-land then treated with LPS; […] FIG. 12” for “FIG. 11”, “of 4-1BBL expression in” for “of TNFα secretion from”, “pre-incubated for 1 hour” for “pre-incubated”, “curcumin” for “curcumin for 1 hour”"}},
  "data": [
    {"smiles": "COc1cc(C=CC(=O)CC(=O)C=Cc2ccc(O)c(OC)c2)ccc1O", "note": "[curcumin, 1,7-Bis-(4-hydroxy-3-methoxyphenyl)-hepta-1,6-diene-3,5-dione]", "values": [
      {"measurement": "LPS-induced NF-κB expression", "setting": "[1]", "value": "decreased"},
      {"measurement": "TNFα secretion, early phase", "setting": "[2]; 6 hours after LPS", "value": "inhibition"},
      {"measurement": "TNFα secretion, late phase", "setting": "[2]; 24 hours after LPS", "value": "inhibition"},
      {"measurement": "4-1BBL expression, early phase", "setting": "[3]; 6 hours after LPS", "value": "inhibition"},
      {"measurement": "4-1BBL expression, late phase", "setting": "[3]; 24 hours after LPS", "value": "inhibition"}
    ]}
  ]
}
